{"source": "patent US20190075796A1", "about": "“Increased walnut yields with brassinosteroid application” (priority 2017, published 2019)", "key": {"[1]": {"tested_on": "walnut cv. Chandler", "assay": "Foliar spray field trial in a walnut orchard, cv. Chandler: fruit set and nut weights", "type": "in vivo", "description": "(§1) Testing was conducted in two contiguous walnut orchards located in Pirque, Metropolitan Region of Chile. The first orchard is of cultivar Serr, planted at 11×11 m and 20 years old. The second orchard is of cultivar Chandler, planted at 7×6 m and 5 years old. In the 2014/2015 season yield of cultivar Serr was 4,300 kilograms of walnuts in shells per hectare, and in cultivar Chandler the yield was 2,300 kilograms of walnuts in shells per hectare.\n(§2) During the 2014/2015 season, four experimental and one control treatments were applied to the Pirque orchard. Treatments were foliar sprays with solutions of Homobrassinolide (HBR) at 0.4, 4.0 and 20 ppm, and HBR 4.0 ppm+CPPU 10 ppm. Control was water. Treatment of each cultivar took place 10 days after said cultivar reached approximately 10% pistillate flower receptive. Each tree was sprayed with approximately 250 ml of solution. At that volume the sprayed leaves and branches are wetted and excess solution is dripping off the tree. Applications were made to small branches having 2 to 4 terminal buds with pistillate flowers, equivalent to 3 to 12 potential fruits per replication. The experimental design was randomized blocks with 10 replications. Ten trees per cultivar received treatment and all treatments were applied to separate spray targets of each tree. The spray targets included pistillate flowers, catkins and leaves.\nWalnut flowering of both cultivars in the season was prolonged and irregular, extending for 2 weeks in each cultivar. Bloom was mainly protandrous with catkins fall of 20-30% during the pistillate flowering period for both cultivars. The vegetative growth was normal. When flowering of cv. Serr reached 10 to 20% of receptivity, Aminoethoxy vinyl-glycine was applied at a concentration of 125 ppm to all conditions to delay ripening.\nThe measurement of fruit set was determined by the difference between the number of fruit harvested and the number of flowers/fruitlets sprayed in late flowering. After harvest, the nuts from the experiment were dried in laboratory at a temperature of 35° C. for 12 hours, and then the nut shell was removed, measuring the weight of both (in shell and shelled) independently."}, "[2]": {"tested_on": "walnut cv. Serr", "assay": "Foliar spray field trial in a walnut orchard, cv. Serr: fruit set and nut weights", "type": "in vivo", "conditions": "all treatments of HBR except HBR 0.4 ppm", "description": "as §1\nas §2, with “Ten trees per cultivar received treatment and all treatments were applied to separate spray targets of each tree. The spray targets included pistillate flowers, catkins and leaves.” left out\nThe measurement of fruit set was determined by the difference between the number of fruit harvested and the number of flowers/fruitlets sprayed in late flowering. […]"}, "[3]": {"tested_on": "pollen of cv. Chandler", "assay": "In vitro pollen germination and pollen tube growth", "type": "cell-based, walnut", "conditions": "20° C.", "description": "An in vitro experiment was done to study the effects of the same treatments as Study 1 on pollen of cv. Chandler. The growing media used for pollen germination and tube growth was prepared in Petri dishes, and consisted of a solution of 10% sucrose and 1% agar in 50 mg per liter boric acid, plus either 0.4 ppm HBR, 4.0 ppm HBR, 20 ppm HBR, or 4.0 ppm HBR+10 pm CPPU. The control solution was distilled water. The experimental design was randomized with 4 replications, using Petri dishes as experimental units. Chandler pollen was sown onto the media with a fine brush, and incubated in a growth chamber for 24 hours at 20° C. Observations of pollen germination were done after 12 hours and pollen tube growth after 24 hours respectively. An Olympus CX31 microscope at 40× was used, and photographs were taken with a ProgRes® C3 camera, using the Capture-Pro computational program. The percentage of germination was determined using the GSA Image Analyzer 3.6.5 program, and the pollen tube length with the Qcad program. FIG. 11 is a representative 20× photomicrograph of germinating Chandler pollen."}}}
{"molecule": "CC[C@@H](C(C)C)C(O)C(O)[C@@H](C)[C@H]1CC[C@H]2[C@@H]3COC(=O)[C@H]4C[C@H](O)[C@H](O)C[C@]4(C)[C@H]3CC[C@]12C", "note": "(stereo in doubt) [HBR, homobrassinolide]", "values": [{"measurement": "fruit set, increase with respect to the control", "setting": "[1]; HBR 0.4 ppm", "value": 6.2, "unit": "%"}, {"measurement": "final weight of walnuts in shell, increase over control", "setting": "[1]; HBR 4.0 ppm", "value": 16.9, "unit": "%"}, {"measurement": "fruit set, increase with respect to the control", "setting": "[1]; HBR 4.0 ppm", "value": 5.0, "unit": "%"}, {"measurement": "final weight of walnuts in shell, increase over control", "setting": "[1]; HBR 20 ppm", "value": 29.6, "unit": "%"}, {"measurement": "fruit set, increase with respect to the control", "setting": "[1]; HBR 20 ppm", "value": 13.5, "unit": "%"}, {"measurement": "final weight of shelled walnuts versus control", "setting": "[2]", "value": "greater than control"}, {"measurement": "pollen germination versus control", "setting": "[3]; 0.4 ppm HBR in medium, observed after 12 hours", "value": "less than control"}, {"measurement": "pollen germination versus control", "setting": "[3]; 4.0 ppm HBR in medium, observed after 12 hours", "value": "similar"}, {"measurement": "pollen tube growth versus control", "setting": "[3]; 4.0 ppm HBR in medium, observed after 24 hours", "value": "greater than control"}, {"measurement": "pollen germination", "setting": "[3]; 20 ppm HBR in medium, observed after 12 hours", "value": "no germination"}]}
